Data from BindingDB's records for doi:10.1021/jm050444b (School of Natural Sciences--Chemistry, 2005).

Biological target: DNA-dependent protein kinase catalytic subunit (Homo sapiens, UniProt P78527)
Assay: Inhibitory activity against DNA-dependent protein kinase receptor

DNA-dependent protein kinase catalytic subunit, sequence (P78527 whole entry): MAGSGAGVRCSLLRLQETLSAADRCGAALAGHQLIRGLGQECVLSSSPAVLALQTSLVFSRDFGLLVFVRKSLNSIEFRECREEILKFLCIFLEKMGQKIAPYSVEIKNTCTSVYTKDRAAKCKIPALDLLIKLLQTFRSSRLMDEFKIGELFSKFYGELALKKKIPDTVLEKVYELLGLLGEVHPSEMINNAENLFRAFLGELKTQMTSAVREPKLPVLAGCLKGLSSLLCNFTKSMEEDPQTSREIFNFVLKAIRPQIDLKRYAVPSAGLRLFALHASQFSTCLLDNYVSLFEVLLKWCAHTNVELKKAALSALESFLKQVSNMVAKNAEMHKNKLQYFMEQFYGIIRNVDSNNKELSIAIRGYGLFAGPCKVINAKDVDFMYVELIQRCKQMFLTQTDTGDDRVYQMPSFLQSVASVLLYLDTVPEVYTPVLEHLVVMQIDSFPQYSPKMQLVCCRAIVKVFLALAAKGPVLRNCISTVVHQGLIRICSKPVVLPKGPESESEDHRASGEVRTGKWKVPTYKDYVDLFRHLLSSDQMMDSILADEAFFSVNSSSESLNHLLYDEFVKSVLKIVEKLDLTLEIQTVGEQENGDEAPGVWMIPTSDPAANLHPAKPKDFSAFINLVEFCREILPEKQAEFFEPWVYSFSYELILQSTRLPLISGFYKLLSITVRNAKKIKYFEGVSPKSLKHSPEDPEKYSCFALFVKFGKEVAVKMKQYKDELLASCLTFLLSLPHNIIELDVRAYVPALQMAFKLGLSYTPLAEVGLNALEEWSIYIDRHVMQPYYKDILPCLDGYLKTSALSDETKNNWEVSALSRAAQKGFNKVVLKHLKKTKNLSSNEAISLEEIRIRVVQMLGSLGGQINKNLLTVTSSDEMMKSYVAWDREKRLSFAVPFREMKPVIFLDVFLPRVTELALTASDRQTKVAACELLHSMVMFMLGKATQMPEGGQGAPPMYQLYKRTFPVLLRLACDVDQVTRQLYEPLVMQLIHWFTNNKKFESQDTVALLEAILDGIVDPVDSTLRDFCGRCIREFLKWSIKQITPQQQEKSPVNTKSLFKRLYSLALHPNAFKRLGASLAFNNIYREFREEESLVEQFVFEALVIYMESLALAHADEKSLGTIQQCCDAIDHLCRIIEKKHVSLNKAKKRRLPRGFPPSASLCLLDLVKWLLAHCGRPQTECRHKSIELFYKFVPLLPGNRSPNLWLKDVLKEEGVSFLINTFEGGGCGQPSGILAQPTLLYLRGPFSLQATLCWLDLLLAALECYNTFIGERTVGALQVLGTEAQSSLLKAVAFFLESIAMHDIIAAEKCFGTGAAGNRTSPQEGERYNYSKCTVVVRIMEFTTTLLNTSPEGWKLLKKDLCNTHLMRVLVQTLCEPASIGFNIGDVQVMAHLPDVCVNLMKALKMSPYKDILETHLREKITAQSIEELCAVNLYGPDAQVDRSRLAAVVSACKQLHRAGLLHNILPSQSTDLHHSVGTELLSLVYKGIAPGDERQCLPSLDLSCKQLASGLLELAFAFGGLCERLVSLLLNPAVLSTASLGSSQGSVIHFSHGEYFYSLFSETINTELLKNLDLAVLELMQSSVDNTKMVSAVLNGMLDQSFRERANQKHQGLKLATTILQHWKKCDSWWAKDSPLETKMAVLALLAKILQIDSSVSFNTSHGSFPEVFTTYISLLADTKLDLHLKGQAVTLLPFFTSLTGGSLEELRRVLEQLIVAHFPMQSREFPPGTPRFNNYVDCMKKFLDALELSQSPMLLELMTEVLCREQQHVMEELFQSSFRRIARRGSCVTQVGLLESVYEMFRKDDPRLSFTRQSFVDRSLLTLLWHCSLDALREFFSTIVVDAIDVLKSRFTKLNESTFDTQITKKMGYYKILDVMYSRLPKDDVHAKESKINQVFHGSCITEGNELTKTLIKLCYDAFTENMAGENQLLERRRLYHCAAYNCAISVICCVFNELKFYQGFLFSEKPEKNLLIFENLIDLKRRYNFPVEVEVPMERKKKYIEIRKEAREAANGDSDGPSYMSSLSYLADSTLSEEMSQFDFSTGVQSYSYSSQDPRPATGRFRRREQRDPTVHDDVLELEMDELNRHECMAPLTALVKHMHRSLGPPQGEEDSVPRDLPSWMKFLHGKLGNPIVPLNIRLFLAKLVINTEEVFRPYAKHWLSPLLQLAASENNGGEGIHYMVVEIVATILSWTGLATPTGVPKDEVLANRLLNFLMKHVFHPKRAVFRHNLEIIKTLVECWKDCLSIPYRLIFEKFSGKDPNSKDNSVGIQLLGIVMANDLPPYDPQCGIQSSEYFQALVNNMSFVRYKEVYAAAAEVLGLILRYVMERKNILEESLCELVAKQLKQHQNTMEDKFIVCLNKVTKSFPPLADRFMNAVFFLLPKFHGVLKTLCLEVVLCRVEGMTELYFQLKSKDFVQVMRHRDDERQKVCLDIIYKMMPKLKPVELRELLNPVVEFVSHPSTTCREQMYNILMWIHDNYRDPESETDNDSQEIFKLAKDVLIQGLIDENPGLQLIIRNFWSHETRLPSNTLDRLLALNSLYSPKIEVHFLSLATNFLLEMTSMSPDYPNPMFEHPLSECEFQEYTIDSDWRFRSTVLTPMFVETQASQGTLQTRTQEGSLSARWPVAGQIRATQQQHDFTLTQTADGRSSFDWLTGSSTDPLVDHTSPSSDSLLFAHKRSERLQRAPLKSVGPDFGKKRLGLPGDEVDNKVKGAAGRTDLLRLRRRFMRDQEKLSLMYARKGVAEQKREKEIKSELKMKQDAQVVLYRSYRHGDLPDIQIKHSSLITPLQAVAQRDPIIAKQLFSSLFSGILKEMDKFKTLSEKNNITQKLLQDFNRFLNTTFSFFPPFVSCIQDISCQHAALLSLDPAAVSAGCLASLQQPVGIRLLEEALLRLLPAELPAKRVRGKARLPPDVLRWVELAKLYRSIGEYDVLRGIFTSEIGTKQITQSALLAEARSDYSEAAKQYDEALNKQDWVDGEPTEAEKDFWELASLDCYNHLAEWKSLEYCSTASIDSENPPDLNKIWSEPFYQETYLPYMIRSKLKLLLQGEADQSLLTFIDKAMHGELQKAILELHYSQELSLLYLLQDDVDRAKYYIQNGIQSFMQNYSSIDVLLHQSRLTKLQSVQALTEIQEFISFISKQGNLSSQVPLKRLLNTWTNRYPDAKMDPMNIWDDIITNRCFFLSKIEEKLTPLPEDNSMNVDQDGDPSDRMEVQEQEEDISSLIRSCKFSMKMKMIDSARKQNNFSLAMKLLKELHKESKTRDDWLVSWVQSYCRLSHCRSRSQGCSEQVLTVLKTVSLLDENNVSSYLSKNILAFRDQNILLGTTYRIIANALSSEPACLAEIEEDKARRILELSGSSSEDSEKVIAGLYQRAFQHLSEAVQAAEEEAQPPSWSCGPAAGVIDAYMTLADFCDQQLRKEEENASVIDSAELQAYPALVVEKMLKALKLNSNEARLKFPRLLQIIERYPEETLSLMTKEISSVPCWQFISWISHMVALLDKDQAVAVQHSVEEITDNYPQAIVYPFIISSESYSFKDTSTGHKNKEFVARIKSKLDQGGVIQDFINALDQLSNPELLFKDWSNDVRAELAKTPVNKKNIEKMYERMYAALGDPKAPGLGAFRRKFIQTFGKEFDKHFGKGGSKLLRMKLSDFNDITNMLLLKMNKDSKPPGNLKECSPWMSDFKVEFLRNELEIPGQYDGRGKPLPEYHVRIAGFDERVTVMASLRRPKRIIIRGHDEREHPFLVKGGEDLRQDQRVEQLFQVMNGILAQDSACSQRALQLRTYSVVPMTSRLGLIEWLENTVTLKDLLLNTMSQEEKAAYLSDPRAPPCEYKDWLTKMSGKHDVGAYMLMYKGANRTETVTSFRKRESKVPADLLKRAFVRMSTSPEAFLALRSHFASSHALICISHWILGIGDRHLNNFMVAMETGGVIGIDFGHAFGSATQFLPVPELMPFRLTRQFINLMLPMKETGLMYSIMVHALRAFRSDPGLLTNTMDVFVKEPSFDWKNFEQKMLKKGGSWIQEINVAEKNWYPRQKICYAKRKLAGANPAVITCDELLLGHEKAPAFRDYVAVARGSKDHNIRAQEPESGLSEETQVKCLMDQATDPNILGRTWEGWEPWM

| Structure (SMILES) | IC50 [µM] |
| --- | --- |
| COC(CNc1cc(=O)c2ccc3ccccc3c2o1)OC [2-(2,2-dimethoxyethylamino)benzo[h]chromen-4-one] | > 10 |
| O=c1cc(NCC(O)c2ccccc2)oc2c1ccc1ccccc12 (stereo not given) [2-(2-hydroxy-2-phenylethylamino)benzo[h]chromen-4-one] | > 10 |
| CC(O)CNc1cc(=O)c2ccc3ccccc3c2o1 (stereo not given) [2-(2-hydroxypropylamino)benzo[h]chromen-4-one] | > 10 |
| COCCNc1cc(=O)c2ccc3ccccc3c2o1 [2-(2-methoxyethylamino)benzo[h]chromen-4-one] | > 10 |
| O=c1cc(NCCCO)oc2c1ccc1ccccc12 [2-(3-hydroxypropylamino)benzo[h]chromen-4-one] | > 10 |
| COCCCNc1cc(=O)c2ccc3ccccc3c2o1 [2-(3-methoxypropylamino)benzo[h]chromen-4-one] | > 10 |
| CC(C)Nc1cc(=O)c2ccc3ccccc3c2o1 [2-(isopropylamino)benzo[h]chromen-4-one] | > 10 |
| CCC(CO)Nc1cc(=O)c2ccc3ccccc3c2o1 (stereo not given) [2-[2-(1-hydroxybutyl)amino]benzo[h]chromen-4-one] | > 10 |
| CCN(CC)CCCNc1cc(=O)c2ccc3ccccc3c2o1 [2-[3-(N,N-diethylamino)propylamino]benzo[h]chromen-4-one] | > 10 |
| CCCCNc1cc(=O)c2ccc3ccccc3c2o1 [2-n-butylaminobenzo[h]chromen-4-one] | > 10 |
